The results in this text go back to patent US20230089723A1, “AMINO ACID COMPOSITIONS AND METHODS FOR MUSCLE AND MYOTUBE MODULATION” (AXCELLA HEALTH INC., priority 2020, published 2023).

Assay [1] concerns cultured human myotubes (primary myoblasts W018). Put plainly: In vitro model for muscle protein synthesis: Click-iT OPP incorporation in myotubes (modified MyoScreen). Type of assay: cell-based. The settings on record: myotubes in DMEM with 0.15× plasma amino acid profile, treated with amino acids at 1× human plasma concentration, 4 days; Click-iT signal in myotube mask.
Protocol: The ability of amino acids to influence protein synthesis in muscle cells was assessed using a modified version of MyoScreen (Cytoo SA, Grenoble Fr).
(§1) Primary myoblasts (W018) were amplified and seeded into CYTOOplates on Day 0. After one day differentiation was started in DMEM/F12+GlutaMAX supplemented with 0.1% Horse Serum.
Protein Synthesis after 4 Days by Fluorescence Microscopy
After 4 days of culture, cells were washed twice with PBS 1× (Gibco), fixed with 4% Paraformaldehyde, and washed twice with PBS 1× (100 μL). Cells were then permeabilized by 0.5% Triton X-100 followed by three washes with PBS. After fixation, cells were immuno-stained for troponin to identify specific myotubes. […] In the Click-iT assay, 0-propargyl-puromycin (OPP) is efficiently incorporated into newly translated proteins in vivo for 30 minutes and then fluorescently labeled with Alexa Fluor® dye, which can be detected by high-content imaging (Molecular Devices). Click-iT signal was restricted to the myotube mask generated by the troponin co-stain. Data was collected as Click-iT mean intensity in myotubes (au). Images were acquired with Operetta HCS platform (Perkin Elmer) using a 10× objective in three fluorescent channels: nuclei, Troponin T, and Click-iT. Image processing and analysis were performed with a dedicated algorithm developed on Acapella high Content imaging Software (Perkin Elmer) at CYTOO. […]
Assay [2] relates to differentiating cultured human myotubes (primary myoblasts W018). Briefly: In vitro model for myogenesis: myotube fusion index (modified MyoScreen). Type of assay: cell-based. Conditions: myotubes in DMEM with 0.15× plasma amino acid profile, treated with amino acids at 1× human plasma concentration, 4 days.
Protocol: as §1
Fusion Index Analysis after 4 Days by Fluorescence Microscopy
Images were acquired with Operetta HCS platform (Perkin Elmer) using a 10× objective in two fluorescent channels: nuclei, Troponin T. Image processing and analysis were performed with a dedicated algorithm developed on Acapella high Content imaging Software (Perkin Elmer) at CYTOO. Nuclei within myotubes were counted under myotube mask generated by troponin co-stain and fusion index was calculated as the percentage of fused nuclei in myotube over total nuclei. Statistical analysis was done with T-Test relative to the untreated condition.

For the compound `N[C@@H](CC(=O)O)C(=O)O` [D, Aspartic acid/Aspartate], the “Protein Synthesis median” value in assay [1] is 0.1078. Also, in assay [2], the “Fusion Index median” value was determined as 0.05657.
